Here are results for 3 molecules from article PMC3338619, “Ligand Binding Study of Human PEBP1/RKIP: Interaction with Nucleotides and Raf-1 Peptides Evidenced by NMR and Mass Spectrometry” (PLoS ONE, 2012).

The target in experiment [1] is T1, hPEBP1 (Homo sapiens, UniProt P30086).
T1 construct: all residues except Met1, Val3, Asp35, Gln45, Lys47 and Lys187 (total residues: 187;); made in house; host or cells: E. coli BL21 (DE3), pET31b
Kind of experiment: 15N-1H HSQC NMR titration of ligands with hPEBP1 (KD from CSP fitting). Type of experiment: binding. Here is the method: The interactions between hPEBP1 100–270 µM and the four selected ligands were investigated by ^15N-^1H heteronuclear single quantum coherence (HSQC) NMR experiments with a sensitivity enhancement and gradient selected coherence. ^1H, ^15N HSQC spectra were recorded at 20 or 30°C on a Bruker 500 MHz or a Varian Inova 600 MHz spectrometer. Two experimental sets of conditions were tested: MES 10 mM pH 6.5 at 20°C, and HEPES 10 mM, NaCl 100 mM pH 7.5 at 30°C.
In the simple case of protein-ligand interactions, the free and the bound states are observed during the titration. The interpretation of an NMR spectrum, such as an HSQC, depends on the rate of exchange between the bound and the free forms. Three different cases can be observed. If the complex rate of dissociation is very slow, two separate resonances are observed at the positions corresponding to the chemical shifts characteristic of the two states (free and bound). During the titration, the intensity of the free resonance decreases while the bound resonance one appears and goes up. This regime corresponds to slow chemical exchange on the NMR time scale. If the complex rate of dissociation is very fast, only a single resonance is observed, whose position is the average of the chemical shifts of the two states, weighted by their relative populations. In this case, Chemical Shift Perturbations (CSP) are observed, i.e. the chemical shift evolves as the ligand concentration increases. This regime corresponds to fast exchange on the NMR time scale, and is typical for weaker affinity complexes. In the intermediate chemical exchange case, in addition to CSP, complex changes will affect the line shape that results in the observation of very broad signals with low intensity.
In the fast exchange regime, CSP can be measured from ^15N-HSQC spectra using the equation: [drawing 1] (1) with δ being the chemical shift in ppm.
A threshold value was estimated in order to determine significant CSP. In a first step, all the CSP are considered and the average (<CSP>) plus two times the standard deviation (σ) is calculated. Then, the highest CSP (CSP≥<CSP>+2σ) are removed from the data and new average and new standard deviation calculated. The operation is repeated until the convergence is reached.
Once the residues involved in the binding were selected, the experimental data were fitted with the quadratic equation 2 using SigmaPlot 9.0 in order to obtain the dissociation constant value (KD): [drawing 2] (2) where [P]0 and [L] are the total protein and ligand concentrations, respectively. A KD value was estimated for each residue involved in the binding, and then an average was calculated.

Experiment [2] deals with T1, hPEBP1. Kind of experiment: Native mass spectrometry KD determination (bound protein fraction). Conditions: ammonium bicarbonate 20 mM pH 7.4/37°C, no NaCl; read-out: MS KD. The format is binding. As for the experimental part: Non-labeled recombinant hPEBP1 purified as previously described was used for mass spectrometry analysis. To prevent Na^+ adduct formation, the commercial GTP and FMN nucleotides used in native MS were desalted. For this purpose, a protocol derived from the RNA-desalting procedure of Limbach et al. (1995) was set up.
All MS measurements were performed in an ESI-ion trap model Esquire HCT or Ultra HCT PTM Discovery (Bruker, Bremen, Germany), or in a maXis ESI-UHR-Qq-TOF (Bruker). Complexes were formed by incubating hPEBP1 with a range of ligand concentrations in ammonium bicarbonate 20 mM/formic acid buffer, pH 7.4 at 37°C or in ammonium acetate 20 mM, pH 6.6 at 20°C. After incubation, samples were treated with a Zeba micro gel filtration device with a 7 kDa cut-off (Thermo Scientific, Waltham, MA) prior to MS measurement, or analyzed directly in MS. The KD was determined by measuring the bound protein fraction by native MS. Details of the development of the native MS method for KD determination are described in the work of Jaquillard et al. (in press).

For the next experiment, the system named is rPEBP1. Details: method as in PMID 20463977. Conditions: pH 7.4/NaCl 100 mM/30°C, 130 mM GTP for 75 µM rPEBP1; cited from earlier work.
[3] abbreviates: HEPES 10 mM pH 7.5/NaCl 100 mM/30°C (near physiological conditions).

T1 sequence (P30086 whole entry): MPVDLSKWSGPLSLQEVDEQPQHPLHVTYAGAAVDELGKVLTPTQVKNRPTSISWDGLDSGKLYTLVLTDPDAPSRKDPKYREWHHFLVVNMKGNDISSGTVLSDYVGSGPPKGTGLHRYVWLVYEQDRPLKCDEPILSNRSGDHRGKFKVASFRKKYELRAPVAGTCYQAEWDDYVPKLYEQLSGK

One may read the Kd as the concentration at which binding is half-saturated. For `Cc1cc2nc3c(=O)[nH]c(=O)nc-3n(C[C@H](O)[C@H](O)[C@H](O)COP(=O)(O)O)c2cc1C` [FMN, flavin mononucleotide], the Kd at hPEBP1 [1] (HEPES 10 mM pH 7.5/20°C, from CSP data of 9 residues in fast exchange) worked out at 14 ± 11 µM; on hPEBP1 [1] (setting [3]), 252 ± 84 µM; on hPEBP1 [1] (MES 10 mM pH 6.5/20°C), 14 ± 9 µM; at hPEBP1 [2] it was 5 ± 4 µM.

Regarding `Nc1nc2c(ncn2[C@@H]2O[C@H](COP(=O)(O)OP(=O)(O)OP(=O)(O)O)[C@@H](O)[C@H]2O)c(=O)[nH]1` [GTP, Guanosine triphosphate], the values for the Kd at hPEBP1 [1] (setting [3]), at hPEBP1 [1] (MES 10 mM pH 6.5/20°C) and on hPEBP1 [2] were 3420 ± 1970 µM, 669 ± 140 µM and 89 ± 48 µM, respectively. The “chemical shift perturbations for rPEBP1” value in the experiment on rPEBP1 is listed as “did not cause significant chemical shift perturbations”.

In the case of `O=C1N[C@@H](Cc2ccccc2)CO1` [locostatin precursor, (S)-4-benzyl-2-oxazolidinone], the Kd at hPEBP1 [1] (setting [3]) came out at 173 ± 19 µM.
